Patent US11168058B2, “Manufacture of a crystalline pharmaceutical product” (ORION CORPORATION, priority 2017, dated 2021)

Columns and labels:
Type in all cases: physicochemical
[1] = Specific surface area (SSA) by three-point nitrogen adsorption (BET), TriStar 3000; conditions: for SSA: Table 1, batch A; for SSA / Specific surface area: crystalline rounded particles before/after milling; for Specific surface area: Table 2, batch B
Experimental: The specific surface area (SSA) of crystalline particles of compound (I) can be analyzed using the three-point nitrogen adsorption technique based on the Brunauer, Emmett and Teller (BET) theory, for example using TriStar 3000 automated gas adsorption analyzer, (Micromeritics, Inc.). The samples are suitably vacuum dried for 20 hours at 40° C. The volumetric method can be used at the relative pressure range of 0.1-0.3 P/P0.
(§1) The specific surface area (SSA) and particle size distribution (PSD) were determined for two batches (A and B) of crystalline rounded particles of compound (I) prepared according to the present invention. The particles of the two batches were then milled followed by the determination of SSA and PSD.
The specific surface area was measured using the three-point nitrogen adsorption technique based on the Brunauer, Emmett and Teller (BET) theory using TriStar 3000 automated gas adsorption analyzer (Micromeritics, Inc.). The samples were vacuum dried for 20 hours in 40° C. The volumetric method was applied at the relative pressure range 0.1-0.3 P/P0.

[2] = Particle size distribution by laser light diffraction (Beckman Coulter LS13320, dry powder); conditions: for Volume particle size, Dv10 / Volume particle size, Dv50 / Volume particle size, Dv90: before/after milling
Experimental: The particle size distribution of crystalline particles of compound (I) can be analyzed by laser light diffraction, for example using Beckman Coulter LS13320 laser diffraction particle size analyzer equipped with Tornado Dry Powder System using air as dispersion medium with measurement pressure 24″H2O±2″H2O, sample amount 10 ml, system controlled target 5% for obscuration and applying Fraunhofer optical model.
The parameters considered are the volumetric diameters in μm of the 10th, 50th and 90th percentiles of the particles, expressed as Dv10, Dv50 and Dv90 respectively, which are determined by assuming that the particles have a geometric shape equivalent to a sphere.
The particle size distribution of the crystalline rounded particles of compound (I) prepared according to the present invention was determined by laser light diffraction. The determination was carried out by using Beckman Coulter LS13320 laser diffraction particle size analyzer equipped with Tornado Dry Powder System using air as dispersion medium with measurement pressure 24″H2O±2″H2O, sample amount 10 ml, system controlled target 5% for obscuration and applying Fraunhofer optical model. According to the analysis, Dv10 value of the particles is 359 μm, Dv50 is 632 μm and Dv90 is 925 μm.
as §1

[3] = Solubility in water (statement)
[4] = Example 4, crystalline rounded particles, FIG. 1

SSA [1] [m^2/g]	Volume particle size, Dv10 ([2]; Table 1, batch A) [μm]	Volume particle size, Dv50 ([2]; Table 1, batch A) [μm]	Volume particle size, Dv90 ([2]; Table 1, batch A) [μm]	Specific surface area [1] [m^2/g]	Volume particle size, Dv10 ([2]; Table 2, batch B) [μm]	Volume particle size, Dv50 ([2]; Table 2, batch B) [μm]	Volume particle size, Dv90 ([2]; Table 2, batch B) [μm]	other results	SMILES
14	2	36	218						CC(O)c1cc(C(=O)N[C@@H](C)Cn2ccc(-c3ccc(C#N)c(Cl)c3)n2)n[nH]1 (stereo partly drawn) [A (milled)]
13	171	407	625						CC(O)c1cc(C(=O)N[C@@H](C)Cn2ccc(-c3ccc(C#N)c(Cl)c3)n2)n[nH]1 (stereo partly drawn) [A (unmilled)]
				13	3	96	292		CC(O)c1cc(C(=O)N[C@@H](C)Cn2ccc(-c3ccc(C#N)c(Cl)c3)n2)n[nH]1 (stereo partly drawn) [B (milled)]
				12	176	389	826		CC(O)c1cc(C(=O)N[C@@H](C)Cn2ccc(-c3ccc(C#N)c(Cl)c3)n2)n[nH]1 (stereo partly drawn) [B (unmilled)]
								Change of specific surface area (SSA) on milling to reduced particle size ([1]; batches A and B, milled vs unmilled): did not significantly change; Dv10 [2, 4]: 359 μm; Dv50 [2, 4]: 632 μm; Dv90 [2, 4]: 925 μm; Solubility in water [3]: poorly soluble in water	CC(O)c1cc(C(=O)N[C@@H](C)Cn2ccc(-c3ccc(C#N)c(Cl)c3)n2)n[nH]1 (stereo partly drawn) [compound (I), N—((S)-1-(3-(3-chloro-4-cyanophenyl)-1H-pyrazol-1-yl)-propan-2-yl)-5-(1-hydroxyethyl)-1H-pyrazole-3-carboxamide]
